The text below walks through data of patent US8178506B2, “Oligomeric compounds and compositions for use in modulation of small non-coding RNAs” (Regulus Therapeutics Inc., priority 2003, dated 2012).

In the oligonucleotide strings, read from the 5' end, every base follows the letter of its sugar. An asterisk marks phosphorothioate; unmarked linkages are phosphodiester. Other units and linkages are bracketed, terminal groups are in braces. A string of capitals states the bases alone. e = 2'-O-(2-methoxyethyl) (MOE); [5mC] = 5-methylcytosine; d = 2'-deoxy (DNA)

One data set has as its system preadipocytes / differentiating adipocytes. Kind of data set: Adipocyte differentiation assay, markers taken together. Type of data set: cell-based, human. Conditions: preadipocytes, 250 nM, day nine post-transfection, relative to ISIS-29848.
With “ACTTTCGGTTATCTAGCTTTA [ISIS 327892] (chemistry not given here) [uniform 2′-MOE PS; targets mir-131-2/mir-9]”, the “expression levels of markers of adipocyte differentiation (TG, leptin, aP2, HSL, Glut4, PPARγ)” value is on record as “significantly reduce the expression levels of 5 of 6 markers of adipocyte differentiation”.

The next data set concerns differentiated adipocytes. Description: Hallmark genes and triglycerides in differentiated adipocytes. The class given is cell-based, human. Conditions: Table 28; differentiated adipocytes transfected day nine post-differentiation; 250 nM oligonucleotide. The text has this: The effect of the oligomeric compounds of the present invention targeting miRNAs on the expression of markers of cellular differentiation was examined in differentiated adipocytes.
As previously described, the HSL, aP2, Glut4, and PPARγ genes play important rolls in the uptake of glucose and the metabolism and utilization of fats. Also as previously described, an increase in triglyceride content is another well-established marker for adipocyte differentiation. Human white preadipocytes (Zen-Bio Inc., Research Triangle Park, N.C.) were grown in preadipocyte media (ZenBio Inc.). After the cells reached confluence (approximately three days), they were exposed to differentiation media (Zen-Bio, Inc.) containing a PPAR-γ agonist, IBMX, dexamethasone, and insulin for three days. Cells were then fed Adipocyte Medium (Zen-Bio, Inc.), which was replaced at 2 to 3 day intervals. One day before transfection, 96-well plates were seeded with 3000 cells/well. Cells were then transfected on day nine post-differentiation, according to standard published procedures with 250 nM oligonucleotide in LIPOFECTIN™ (Invitrogen Corporation, Carlsbad, Calif.) (Monia et al., J. Biol. Chem. 1993 268(19):14514-22). Oligomeric compounds were tested in triplicate on each 96-well plate, and the effect of TNF-α, known to inhibit adipocyte differentiation, was also measured in triplicate. Oligomeric compound treatments and transfectant-only negative controls may be measured up to six times per plate. On day twelve post-differentiation, cells were washed and lysed at room temperature, and the expression of the four hallmark genes, HSL, aP2, Glut4, and PPARγ, as well as triglyceride (TG) accumulation were measured in adipocytes transfected with the uniform 2′-MOE phosphorothioate (PS) previously described in Example 13 as well as the chimeric gapmer oligomeric compounds targeting the mir-143 miRNA and the mir-143 pri-miRNA described in Example 16. On day twelve post-differentiation, cells were lysed in a guanadinium-containing buffer and total RNA was harvested. The amount of total RNA in each sample was determined using a Ribogreen Assay (Molecular Probes, Eugene, Oreg.). Real-time PCR was performed on the total RNA using primer/probe sets for the adipocyte differentiation hallmark genes Glut4, HSL, aP2, and PPARγ. Triglyceride levels as well as mRNA levels for each of the four adipocyte differentiation hallmark genes are expressed relative to control levels (control=treatment with ISIS-29848 (SEQ ID NO: 737)).
For “327925 (antisense eT*eA*eG*e[5mC]*eT*eG*eG*eT*eT*eG*eA*eA*eG*eG*eG*eG*eA*e[5mC]*e[5mC]*eA*eA) [compound 327925]”, the Glut4 amounted to 0.74, the HSL was found to be 1.20, the PPAR gamma came out at 1.30 and the TG was 1.33. The aP2 was 0.78.
Substance “327888 (antisense eA*eA*eT*eG*e[5mC]*e[5mC]*e[5mC]*e[5mC]*eT*eA*eA*eA*eA*eA*eT*e[5mC]*e[5mC]*eT*eT*eA*eT) [compound 327888]” showed a Glut4 of 0.56, an HSL of 0.84, a PPAR gamma of 1.69 and a TG of 1.13. The substance also registered an aP2 of 0.73.
In the same order, the values of “338664 (antisense e[5mC]*eA*eG*eA*e[5mC]*eT*e[5mC]*e[5mC]*e[5mC]*eA*eA*e[5mC]*eT*eG*eA*e[5mC]*e[5mC]*eA*eG*eA) [compound 338664]” are 1.08, 1.01, 1.06, 1.72 and 0.77.
Substance “327933 (antisense eA*eA*eG*eG*eG*eA*eT*eT*e[5mC]*e[5mC]*eT*eG*eG*eG*eA*eA*eA*eA*e[5mC]*eT*eG*eG*eA*e[5mC]) [compound 327933]” displayed a Glut4 of 2.12, an HSL of 1.30, a PPAR gamma of 1.60 and a TG of 1.63. The substance further showed an aP2 of 1.58.
Take “327934 (antisense eG*eG*eT*eA*e[5mC]*eA*eA*eT*e[5mC]*eA*eA*e[5mC]*eG*eG*eT*e[5mC]*eG*eA*eT*eG*eG*eT) [compound 327934]”: the Glut4 was determined as 1.52, the HSL worked out at 1.97, the PPAR gamma is recorded as 1.54 and the TG is given as 1.43. Further, the aP2 is 1.50.
Turning to “327878 (antisense e[5mC]*eT*eA*eG*eT*eG*eG*eT*e[5mC]*e[5mC]*eT*eA*eA*eA*e[5mC]*eA*eT*eT*eT*e[5mC]*eA*e[5mC]) [compound 327878]”, the Glut4 worked out at 0.17, the HSL was 0.19, the PPAR gamma came out at 0.85 and the TG amounted to 1.08. The substance further showed an aP2 of 0.13.
Consider “327941 (antisense eA*eA*e[5mC]*e[5mC]*e[5mC]*eA*e[5mC]*e[5mC]*eG*eA*e[5mC]*eA*eG*e[5mC]*eA*eA*eT*eG*eA*eA*eT*eG*eT*eT) [compound 327941]”, for which the Glut4 is 0.90, the HSL was found to be 1.17, the PPAR gamma was 1.66 and the TG turned out to be 1.33. The aP2 was determined as 0.90.
As to “327913 (antisense eA*eA*e[5mC]*e[5mC]*eG*eA*eT*eT*eT*e[5mC]*eA*eA*eA*eT*eG*eG*eT*eG*e[5mC]*eT*eA*eG) [compound 327913]”, the Glut4 is reported as 1.52, the HSL was determined as 1.09, the PPAR gamma was found to be 1.29 and the TG was 1.12. For the same substance, the aP2 was found to be 1.05.
The corresponding values for “327922 (antisense eT*e[5mC]*eA*eG*eT*eT*eT*eT*eG*e[5mC]*eA*eT*eG*eG*eA*eT*eT*eT*eG*e[5mC]*eA*e[5mC]*eA) [compound 327922]” are 0.61, 1.01, 0.99, 1.48 and 0.91.
In turn, “327901 (antisense eT*eG*eA*eG*e[5mC]*eT*eA*e[5mC]*eA*eG*eT*eG*e[5mC]*eT*eT*e[5mC]*eA*eT*e[5mC]*eT*e[5mC]*eA) [compound 327901]” showed a Glut4 of 2.20, an HSL of 1.47, a PPAR gamma of 1.34 and a TG of 1.12. The substance also yielded an aP2 of 1.28.
Turning to “327880 (antisense eA*e[5mC]*eA*eA*eA*eT*eT*e[5mC]*eG*eG*eT*eT*e[5mC]*eT*eA*e[5mC]*eA*eG*eG*eG*eT*eA) [compound 327880]”, the Glut4 is on record as 0.76, the HSL was determined as 0.93, the PPAR gamma was determined as 1.86 and the TG worked out at 1.12. For the same substance, the aP2 was 1.14.
“327889 (antisense eG*eT*eG*eG*eT*eA*eA*eT*e[5mC]*e[5mC]*e[5mC]*eT*eG*eG*e[5mC]*eA*eA*eT*eG*eT*eG*eA*eT) [compound 327889]” had a Glut4 of 0.99, an HSL of 0.77, a PPAR gamma of 1.63 and a TG of 1.09. In addition, the aP2 amounted to 1.12.
For “327890 (antisense eA*eG*e[5mC]*eA*e[5mC]*eA*eA*eA*e[5mC]*eT*eA*e[5mC]*eT*eA*e[5mC]*e[5mC]*eT*e[5mC]*eA) [compound 327890]”, the Glut4 worked out at 0.37, the HSL is on record as 0.42, the PPAR gamma was determined as 1.05 and the TG is given as 1.13. The aP2 was found to be 0.35.
Substance “327905 (antisense e[5mC]*eA*eG*eA*e[5mC]*eT*e[5mC]*e[5mC]*eG*eG*eT*eG*eG*eA*eA*eT*eG*eA*eA*eG*eG*eA) [compound 327905]” showed a Glut4 of 0.58, an HSL of 0.65, a PPAR gamma of 1.31 and a TG of 1.18. Besides, the aP2 turned out to be 0.85.
“327903 (antisense eA*eA*e[5mC]*eT*eA*eT*eA*e[5mC]*eA*eA*e[5mC]*e[5mC]*eT*eA*e[5mC]*eT*eA*e[5mC]*e[5mC]*eT*e[5mC]*eA) [compound 327903]” returned a Glut4 of 0.36, an HSL of 0.53, a PPAR gamma of 0.91 and a TG of 1.12. This substance showed an aP2 of 0.56.
The corresponding values for “327892 (antisense eA*e[5mC]*eT*eT*eT*e[5mC]*eG*eG*eT*eT*eA*eT*e[5mC]*eT*eA*eG*e[5mC]*eT*eT*eT*eA) [compound 327892]” are 0.42, 0.62, 1.01, 1.23 and 0.81.
Consider “340927 (antisense eT*eG*eA*eG*e[5mC]*dT*dA*d[5mC]*dA*dG*dT*dG*d[5mC]*dT*dT*e[5mC]*eA*eT*e[5mC]*eT*e[5mC]*eA) [compound 340927]”, for which the Glut4 is given as 0.96, the HSL was determined as 0.64, the PPAR gamma is recorded as 1.21 and the TG stood at 1.61. The substance further had an aP2 of 0.71.
As to “327954 (antisense eA*e[5mC]*eA*eA*eA*eG*eT*eT*e[5mC]*eT*eG*eT*eG*eA*eT*eG*e[5mC]*eA*e[5mC]*eT*eG*eA) [compound 327954]”, the Glut4 was 0.61, the HSL is 1.35, the PPAR gamma worked out at 1.46 and the TG is listed as 1.46. Also, the aP2 turned out to be 1.23.
On to “328382 (e[5mC]*eA*eG*eA*e[5mC]*dT*d[5mC]*d[5mC]*d[5mC]*dA*dA*d[5mC]*dT*dG*dA*e[5mC]*e[5mC]*eA*eG*eA) [compound 328382]”, for which the Glut4 turned out to be 0.75, the HSL is listed as 0.53, the PPAR gamma was 0.97 and the TG worked out at 1.33. The substance also came in with an aP2 of 0.92.
“327876 (antisense eA*eA*e[5mC]*eA*e[5mC]*eT*eG*eA*eT*eT*eT*e[5mC]*eA*eA*eA*eT*eG*eG*eT*eG*e[5mC]*eT*eA) [compound 327876]”: the Glut4 is reported as 3.53, the HSL is 0.81, the PPAR gamma was 1.28 and the TG is 1.16. The same substance yielded an aP2 of 0.67.
Take “327919 (antisense eG*eA*eA*eA*e[5mC]*e[5mC]*e[5mC]*eA*eG*e[5mC]*eA*eG*eA*e[5mC]*eA*eA*eT*eG*eT*eA*eG*e[5mC]*eT) [compound 327919]”: the Glut4 stood at 1.82, the HSL worked out at 0.83, the PPAR gamma is recorded as 1.80 and the TG is recorded as 1.15. The substance further yielded an aP2 of 1.20.
